Experimental data as given in article PMC9848300, “Discovery of novel enasidenib analogues targeting inhibition of mutant isocitrate dehydrogenase 2 as antileukaemic agents” (Journal of Enzyme Inhibition and Medicinal Chemistry, 2023).
Read-outs that look alike come from different tables or passages of the source.

What was measured:
RXF 393 = experiment: NCI 60 antitumor screening (single dose / five doses); format: cell-based; conditions: Homo sapiens
SW-620 = experiment: as above; format: cell-based, human; conditions: Homo sapiens
SK-MEL-28 = experiment: as above; format: cell-based; conditions: Homo sapiens
DU-145 = experiment: as above; format: cell-based; conditions: Homo sapiens
SNB-19 = experiment: NCI 60 antitumor screening (single dose); format: cell-based; conditions: Homo sapiens; SNB-19 (CNS cancer), single dose 10 μM; read-out: Growth inhibition percentage (GI %)
Summary of the method: (§1)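 Values are GI% (100 − G%) from the NCI 60-line single-dose screen, compound at 10 μM.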

HOP-62 = experiment: NCI 60 antitumor screening (single dose); format: cell-based; conditions: Homo sapiens; HOP-62 (non-small cell lung cancer), single dose 10 μM; read-out: Growth inhibition percentage (GI %)
Summary of the method: (§2)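 The panel mean likewise comes from single-dose (10 μM) NCI 60-line testing, with inhibition expressed as 100 − G%.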

NCI-H23 = experiment: NCI 60 antitumor screening (single dose); format: cell-based; conditions: Homo sapiens; NCI-H23 (non-small cell lung cancer), single dose 10 μM; read-out: Growth inhibition percentage (GI %)
Summary of the method: as §2

NCI-H522 = experiment: NCI 60 antitumor screening (single dose); format: cell-based; conditions: Homo sapiens; NCI-H522 (non-small cell lung cancer), single dose 10 μM; read-out: Growth inhibition percentage (GI %)
Summary of the method: as §2

HCC-2998 = experiment: NCI 60 antitumor screening (single dose); format: cell-based; conditions: Homo sapiens; HCC-2998 (colon cancer), single dose 10 μM; read-out: Growth inhibition percentage (GI %)
Summary of the method: as §2

OVCAR-4 = experiment: NCI 60 antitumor screening (single dose); format: cell-based; conditions: Homo sapiens; OVCAR-4 (ovarian cancer), single dose 10 μM; read-out: Growth inhibition percentage (GI %)
Summary of the method: as §1

NCI-H322M = experiment: NCI 60 antitumor screening (single dose); format: cell-based; conditions: Homo sapiens; NCI-H322M (non-small cell lung cancer), single dose 10 μM; read-out: Growth inhibition percentage (GI %)
Summary of the method: as §1

KM 12 = experiment: NCI 60 antitumor screening (single dose); format: cell-based; conditions: Homo sapiens, KM12; KM 12 (colon cancer), single dose 10 μM; read-out: Growth inhibition percentage (GI %)
Summary of the method: as §1

U251 = experiment: NCI 60 antitumor screening (single dose); format: cell-based; conditions: Homo sapiens, U-251; U251 (CNS cancer), single dose 10 μM; read-out: Growth inhibition percentage (GI %)
Summary of the method: as §2

MCF7 = experiment: NCI 60 antitumor screening (single dose); format: cell-based; conditions: Homo sapiens; MCF7 (breast cancer), single dose 10 μM; read-out: Growth inhibition percentage (GI %)
Summary of the method: as §1

OVCAR-5 = experiment: NCI 60 antitumor screening (single dose); format: cell-based; conditions: Homo sapiens; OVCAR-5 (ovarian cancer), single dose 10 μM; read-out: Growth inhibition percentage (GI %)
Summary of the method: as §2

SK-OV-3 = experiment: NCI 60 antitumor screening (single dose); format: cell-based; conditions: Homo sapiens; SK-OV-3 (ovarian cancer), single dose 10 μM; read-out: Growth inhibition percentage (GI %)
Summary of the method: as §2

OVCAR-3 = experiment: NCI 60 antitumor screening (single dose); format: cell-based; conditions: Homo sapiens; OVCAR-3 (ovarian cancer), single dose 10 μM; read-out: Growth inhibition percentage (GI %)
Summary of the method: as §1

CAKI-1 = experiment: NCI 60 antitumor screening (single dose); format: cell-based; conditions: Homo sapiens; CAKI-1 (renal cancer), single dose 10 μM; read-out: Growth inhibition percentage (GI %)
Summary of the method: as §1

OVCAR-8 = experiment: NCI 60 antitumor screening (single dose); format: cell-based; conditions: Homo sapiens; OVCAR-8 (ovarian cancer), single dose 10 μM; read-out: Growth inhibition percentage (GI %)
Summary of the method: as §1

NCI-H226 = experiment: NCI 60 antitumor screening (single dose); format: cell-based; conditions: Homo sapiens; NCI-H226 (non-small cell lung cancer), single dose 10 μM; read-out: Growth inhibition percentage (GI %)
Summary of the method: as §1

NCI-H460 = experiment: NCI 60 antitumor screening (single dose); format: cell-based; conditions: Homo sapiens; NCI-H460 (non-small cell lung cancer), single dose 10 μM; read-out: Growth inhibition percentage (GI %)
Summary of the method: as §2

A549/ATCC = experiment: NCI 60 antitumor screening (single dose); format: cell-based; conditions: Homo sapiens; A549/ATCC (non-small cell lung cancer), single dose 10 μM; read-out: Growth inhibition percentage (GI %)
Summary of the method: as §1

PC-3 = experiment: NCI 60 antitumor screening (single dose); format: cell-based; conditions: Homo sapiens; PC-3 (prostate cancer), single dose 10 μM; read-out: Growth inhibition percentage (GI %)
Summary of the method: as §1

SF-268 = experiment: NCI 60 antitumor screening (single dose); format: cell-based; conditions: Homo sapiens; SF-268 (CNS cancer), single dose 10 μM; read-out: Growth inhibition percentage (GI %)
Summary of the method: as §2

SF-295 = experiment: NCI 60 antitumor screening (single dose / five doses); format: cell-based; conditions: Homo sapiens
IGROV1 = experiment: as above; format: cell-based; conditions: Homo sapiens
[1] = RXF 393 (renal cancer), single dose 10 μM, read-out: Growth inhibition percentage (GI %)
[2] = SW-620 (colon cancer), single dose 10 μM, read-out: Growth inhibition percentage (GI %)
[3] = SK-MEL-28 (melanoma), single dose 10 μM, read-out: Growth inhibition percentage (GI %)
[4] = DU-145 (prostate cancer), single dose 10 μM, read-out: Growth inhibition percentage (GI %)
[5] = SF-295 (CNS cancer), single dose 10 μM, read-out: Growth inhibition percentage (GI %)
[6] = IGROV-1, IGROV1 (ovarian cancer), single dose 10 μM, read-out: Growth inhibition percentage (GI %)

Structure (SMILES)	inhibition at 10 µM (SNB-19)	inhibition at 10 µM (HOP-62)	inhibition at 10 µM (NCI-H23)	inhibition at 10 µM (NCI-H522)	inhibition at 10 µM (HCC-2998)	inhibition at 10 µM (OVCAR-4)	inhibition at 10 µM (NCI-H322M)	inhibition at 10 µM (KM 12)	inhibition at 10 µM (U251)	inhibition at 10 µM (MCF7)	inhibition at 10 µM (OVCAR-5)	inhibition at 10 µM (SK-OV-3)	inhibition at 10 µM (OVCAR-3)	inhibition at 10 µM (CAKI-1)	inhibition at 10 µM (OVCAR-8)	inhibition at 10 µM (NCI-H226)	inhibition at 10 µM (NCI-H460)	inhibition at 10 µM (A549/ATCC)	inhibition at 10 µM (PC-3)	inhibition at 10 µM (SF-268)	further results
Fc1cccc(Cl)c1/C=N/Nc1nc(N/N=C/c2c(F)cccc2Cl)nc(N2CCCCC2)n1 [compound 7l, 2,4-Bis[(E)-2-[(2-Chloro-6-fluorophenyl)methylidene]hydrazin-1-yl]-6-(piperidin-1-yl)-1,3,5-triazine]	74.2%	74.1%	55.2%	89.6%	75.7%	79%	64.2%	89.2%	73.2%	96.9%	72.2%	60.9%	77.3%	85.9%	74.2%	46.1%	80.1%	78.4%	81.3%	63.3%	inhibition at 10 µM (RXF 393; [1]): 96.6%; GI50 (RXF 393; RXF 393, five doses (0.01–100 μM), read-out: GI50): 2.65 µM; GI50 (SW-620; SW-620, SW-620, five doses (0.01–100 μM), read-out: GI50): 3.51 µM; inhibition at 10 µM (SW-620; [2]): 82.8%; inhibition at 10 µM (SK-MEL-28; [3]): 55.1%; GI50 (SK-MEL-28; SK-MEL-28, five doses (0.01–100 μM), read-out: GI50): 3.41 µM; inhibition at 10 µM (DU-145; [4]): 39%; GI50 (DU-145; DU-145, five doses (0.01–100 μM), read-out: GI50): 11.7 µM; inhibition at 10 µM (SF-295; [5]): 97.4%; GI50 (SF-295; SF-295, five doses (0.01–100 μM), read-out: GI50): 1.01 µM; inhibition at 10 µM (IGROV1; [6]): 82.3%; GI50 (IGROV1; IGROV-1, IGROV1, five doses (0.01–100 μM), read-out: GI50): 3.16 µM
C/C(=N\Nc1nc(N/N=C(\C)c2ccc([N+](=O)[O-])cc2)nc(N2CCOCC2)n1)c1ccc([N+](=O)[O-])cc1 [compound 8a, 2-(Morpholin-4-yl)-4,6-bis[(E)-2-[1–(4-nitrophenyl)ethylidene]hydrazin-1-yl]-1,3,5-triazine]	36.9%	13.8%	42.1%	38.3%	3.95%	22.4%	13.3%	17.9%	7.36%	25.9%	4.46%	-13%	11.6%	30.8%	36.4%	58.1%	21.9%	26.1%	23.4%	3.96%	inhibition at 10 µM (RXF 393; RXF 393, read-out: Growth inhibition percentage (GI %)): 26.3%; inhibition at 10 µM (SW-620; SW-620, read-out: Growth inhibition percentage (GI %)): 4.48%; inhibition at 10 µM (SK-MEL-28; SK-MEL-28, read-out: Growth inhibition percentage (GI %)): 16.2%; inhibition at 10 µM (DU-145; DU-145, read-out: Growth inhibition percentage (GI %)): 19%; inhibition at 10 µM (SF-295; SF-295, read-out: Growth inhibition percentage (GI %)): 33.5%; inhibition at 10 µM (IGROV1; IGROV-1, read-out: Growth inhibition percentage (GI %)): 6.22%
O=C1Nc2ccc(Cl)cc2/C1=N\Nc1nc(N/N=C2/C(=O)Nc3ccc(Cl)cc32)nc(N2CCOCC2)n1 [compound 8b, (3E)-5-Chloro-3-[2–(4-{2-[(3E)-5-chloro-2-oxo-2,3-dihydro-1H-indol-3-ylidene]hydrazin-1-yl}6-(morpholin-4-yl)-1,3,5-triazin-2-yl)hydrazin-1-ylidene]-2,3-dihydro-1H-indol-2-one]	109%	62.4%	82.8%	94.9%	24.5%	21.3%	21.9%	18.8%	96.2%	56.9%	4.93%	44.5%	47.3%	28%	49.9%	42.7%	11.8%	-1.37%	43.9%	50.9%	inhibition at 10 µM (RXF 393; [1]): 86.3%; inhibition at 10 µM (SW-620; [2]): 25.7%; inhibition at 10 µM (SK-MEL-28; [3]): 45%; inhibition at 10 µM (DU-145; [4]): 11.6%; inhibition at 10 µM (SF-295; [5]): 54.4%; inhibition at 10 µM (IGROV1; [6]): 45%
